Measurements reported in article PMC9072415, “Activation of cannabinoid receptors in breast cancer cells improves osteoblast viability in cancer-bone interaction model while reducing breast cancer cell survival and migration” (Scientific Reports, 2022).
“Also recorded” adds a separate entry of the source.

Assays:
Format in all cases: cell-based
UMR-106 cells [1] = assay: MTT cell viability assay, UMR-106 cells; details: for IC50: MTT; for effect of low concentrations on osteoblast growth: UMR-106 osteoblasts
Experimental: (§1) Osteoblast-like UMR-106 cells (RRID CVCL_3617; ATCC CRL-1661) and triple-negative breast cancer cells, MDA-MB-231 (RRID CVCL_0062; ATCC HTB-26) were obtained from American Type Culture Collection (ATCC, VA, USA). Cells were cultured in Dulbecco’s modified Eagle’s medium (DMEM) (Sigma-Aldrich, MO, USA) containing 10% (v/v) fetal bovine serum (FBS) and 1% penicillin–streptomycin (Gibco, Texas, USA) and maintained under 5% CO2 at 37 °C, and sub-cultured according to the manufacturer’s instruction.
(§2) Cell viability was assessed using the 3-(4,5-dimethylthiazol-2-yl)-2,5-diphenyltetrazolium bromide (MTT) colorimetric assay. The assay was performed according to a previously described method. In brief, cells were seeded into a 96-well plate at a density of 1.0 × 10^4 cells/well and allowed to attach overnight. Thereafter, they were treated with ACEA, GW405833 or the combination of both for the indicated times. MTT (Invitrogen, CA, USA) solution was added to the final concentration of 0.5 mg/mL in 100 µL in serum-free DMEM and incubated at 37 °C for 4 h, then stop solution was added and thoroughly mixed. The optical density at 595 nm was measured using a microplate reader (Multiskan EX) (Thermo Fisher Scientific, MA, USA). The percentage of cell viability was calculated based on the absorbance ratio between cells treated with the compounds and control multiplied by 100 (percent cell viability normalized to control).
(§3) All results are expressed as means ± standard errors (SEM). Unless otherwise specified, statistical analysis for multiple comparisons was performed using one-way analysis of variance (ANOVA). The difference between pairs of means was analyzed by Tukey post-test. A p-value < 0.05 was considered statistically significant. Calculation of the inhibitory concentration at 50% (IC50) and all statistical analyses were performed using GraphPad Prism 9 (GraphPad Software Inc., USA).

MDA-MB-231 cells [2] = assay: MTT cell viability assay, MDA-MB-231 cells; details: for IC50: MTT
Experimental: as §1, §2, §3

UMR-106 cells [3] = assay: UMR-106 viability (MTT) with conditioned media from agonist-pretreated MDA-MB-231 cells; details: MDA-MB-231 pretreated 48 h; CM collected after 48 h in serum-free DMEM
Experimental: To collect CM from MDA-MB-231 cells, cells were seeded into a 6-well plate at a density of 5.0 × 10^5 cells/well and grown for 24 h until reaching 80–90% confluence. In the pretreatment experiment, cells were treated with either ACEA, GW405833 or a combination of both for 48 h. After that, cells were washed with phosphate buffered saline (PBS) and incubated in serum-free DMEM. Forty-eight hours later, CM from these cells was harvested, filtered through a syringe filter (pore size of 0.2 µm; Sartorius Stedim Biotech GmbH, Göttingen, Germany) to remove cells and debris, and stored at − 80 °C for later experiments (Fig. 1a).
as §2, with “MTT (Invitrogen, CA, USA) solution was added to the final concentration of 0.5 mg/mL in 100 µL in serum-free DMEM and incubated at 37 °C for 4 h, then stop solution was added and thoroughly mixed.” left out

[4] = test system: cellular ROS in MDA-MB-231 cells; assay: DCFDA cellular ROS detection assay; details: 30 µM ACEA, 15 µM GW405833 or combination, 6 h
Experimental: Cellular reactive oxygen species (ROS) were monitored using the 2´,7´-dichlorofluorescin diacetate (DCFDA) Cellular ROS Detection Assay Kit (ab113851) (Abcam, Cambridge, UK) according to the manufacturer's instruction. In brief, MDA-MB-231 cells were seeded into a 96-black well plates with clear bottom at a density of 2.5 × 10^4 cells/well and grown overnight. Then, the cells were treated with ACEA, GW405833 or the combination of both for 6 h. At the end of the treatment, fluorescence signal of DCF was measured by using a multimode microplate reader (Spark 10 M) (Tecan Austria GmbH, Männedorf, Austria) with the excitation and emission wavelengths of 485 and 535 nm, respectively.

[5] = test system: p-NF-κB p65 in MDA-MB-231 cells; assay: Western blot of p-NF-κB p65 expression; details: individual treatments, 48 h
Experimental: Twenty micrograms of protein samples were resolved by sodium dodecyl sulfate polyacrylamide gel electrophoresis (SDS-PAGE) (Invitrogen) gel before being transferred to nitrocellulose blotting membrane (GE Healthcare, Texas, USA).The membranes were then blocked with 5% (w/v) bovine serum albumin (BSA) (Capricorn Scientific, Hessen, Germany) for 2 h at room temperature, followed by the incubation at 4 °C overnight with primary antibodies. After washing, the membranes were incubated with the appropriate horseradish peroxidase (HRP)-conjugated secondary antibodies. Proteins on the immunoblots were visualized by enhanced chemiluminescence (ECL) (Millipore, MA, USA) and exposed to X-ray film (GE Healthcare). Protein band intensity was quantified using ImageJ software (National Institutes of Health, MD, USA). To relatively quantify the target protein expression, the intensity of target protein band was normalized to β-actin of each lane.

MDA-MB-231 cells [6] = assay: Wound healing cell migration assay; details: for cell migration (wound closure): 15 µM
Experimental: Cell migration was measured by wound healing assay modified from Lertsuwan et al.,[27]. Briefly, MDA-MB-231 cells were seeded into a 24-well plate at a density of 4.0 × 10^5 cells/well and allowed to attach overnight. Thereafter, wound was created with a sterile 200-µL pipette tip, then the cells were treated with ACEA, GW405833 or the combination of both. Series of images of the scratched wound were taken under a phase contrast inverted microscope (model AE31) (Motic, China) from 0 to 36 h. The closure of the wound representing migration ability of the cells was measured by using ImageJ software (National Institutes of Health). Cell migration was calculated as the percentage of wound closure area compared to the initial scratched area.

Row | SMILES | IC50 (UMR-106 cells [1]; 24 h) [µM] | IC50 (UMR-106 cells [1]; 48 h) [µM] | IC50 (UMR-106 cells [1]; 72 h) [µM] | effect of low concentrations on osteoblast growth (UMR-106 cells [1]) | Fold differences between IC50 values of UMR-106 / MDA-MB-231 (MDA-MB-231 cells [2]; 24 h) [fold] | IC50 (MDA-MB-231 cells [2]; 24 h) [µM] | Fold differences between IC50 values of UMR-106 / MDA-MB-231 (MDA-MB-231 cells [2]; 48 h) [fold] | IC50 (MDA-MB-231 cells [2]; 48 h) [µM] | Fold differences between IC50 values of UMR-106 / MDA-MB-231 (MDA-MB-231 cells [2]; 72 h) [fold] | IC50 (MDA-MB-231 cells [2]; 72 h) [µM] | Fold differences between IC50 values of UMR-106 / MDA-MB-231 (MDA-MB-231 cells [2]; Average of 24, 48 and 72 h) [fold] | effect of pretreatment of MDA-MB-231 cells on CM-mediated suppression of UMR-106 cell viability (UMR-106 cells [3]) | cellular ROS levels compared to control group [4] | level of p-NF-κB p65 [5] | percentage of wound closure (cell migration) (MDA-MB-231 cells [6]; 20 µM, 24 h) | percentage of wound closure (cell migration) (MDA-MB-231 cells [6]; 30 µM, 24 h) | percentage of wound closure (cell migration) (MDA-MB-231 cells [6]; 30 µM, 36 h) | cell migration (wound closure) (MDA-MB-231 cells [6]; 24 h) | cell migration (wound closure) (MDA-MB-231 cells [6]; 36 h)
1 | CCCCC/C=C\C/C=C\C/C=C\C/C=C\CCCC(=O)NCCCl [ACEA] | 104 | 62 | 38 | growth stimulatory effect | 1.54 | 67.8 | 1.63 | 38 | 1.16 | 32.8 | 1.44 | did not alter CM-mediated osteoblast suppression | remained unchanged | remained unchanged | significantly decreased | significantly decreased; also recorded: significant reduction | significantly decreased |  | 
2 | COc1ccc2c(c1)c(CCN1CCOCC1)c(C)n2C(=O)c1cccc(Cl)c1Cl [GW405833] | 168 | 119 | 79.9 | growth stimulatory effect | 6.83 | 24.6 | 7.18 | 16.6 | 6.27 | 12.7 | 6.76 | significant recovery | remained unchanged | remained unchanged |  |  |  | significant reduction | significant cell migration suppression
